“Also recorded” adds a separate entry of the source.
Test system: GDF-15 expression in HUVEC cells
Test: GDF-15 mRNA expression by RT-qPCR in HUVEC cells under AZT-induced reductive stress
Format: cell-based, Human
Details: AZT 5 μM with ZLN-005 1 μM, harvested Day 6, two sets of runs (FIG. 1, FIG. 2), AZT vs. AZT/ZLN P=0.016 (FIG. 2)
Description: A study was performed to evaluate the ability of ZLN-005 to mitigate the effects of reductive stress induced by azidothymidine (AZT), which is believed to inhibit mitochondrial respiratory chain complex I and II.
Human human umbilical vein endothelial (HUVEC) cells were cultured in HuMedia-EG2 medium (Kurabo) at 5×10^4 cells per well in a six-well plate. Medium was supplemented with AZT (Sigma) at 5 μM, with or without ZLN-005 at 1 μM. Cells cultured without AZT and without ZLN-005 were used as non-treated control (NTC)). Medium was changed on days 2 and 4. Cells were harvested on Day 6 for analysis of GDF-15 mRNA expression by quantitative reverse transcription PCR (RT-qPCR).

CC(C)(C)c1ccc(-c2nc3ccccc3[nH]2)cc1 [ZLN-005, 2-(4-tert-butylphenyl)-1H-benzimidazole]
GDF-15 expression compared to cells treated with AZT but not ZLN-005: reduced GDF-15 expression; also recorded: decreases expression of reductive stress biomarker GDF-15

Reference: US20250262189A1, “TREATMENT OF DISEASES ASSOCIATED WITH REDUCTIVE STRESS” (RDiscovery, LLC, priority 2022, published 2025)
